# According to PubChem BioAssay (NCI):
#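 Interpolation was linear, between the two tested concentrations surrounding the appropriate level; five concentrations were tested over 48 hours in 96-well plates. GI50 = concentration required for 50% inhibition of growth. TGI: total growth inhibition.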 Where a SMILES comes first, the peptide text is derived from it. The star is where a group is joined. Trt = c1ccc(C(c2ccccc2)(c2ccccc2)*)cc1; Cbz = O=C(OCc1ccccc1)*
# Key:
# Test in all cases: inhibition of tumour cell growth, NCI panel, 48 h
# HOP-62 NSCLC = tested on: HOP-62 NSCLC
# NCI-H226 lung = tested on: NCI-H226 lung
# PC-3 prostate = tested on: PC-3 prostate
# HT29 colon = tested on: HT29 colon
# K-562 leukemia = tested on: K-562 leukemia
# U251 CNS = tested on: U251 CNS
# HCC-2998 colon = tested on: HCC-2998 colon
# A498 renal = tested on: A498 renal
# SK-MEL-5 melanoma = tested on: SK-MEL-5 melanoma
# TK-10 renal = tested on: TK-10 renal
Compound,GI50 (HOP-62 NSCLC) [µM],TGI (HOP-62 NSCLC) [µM],GI50 (NCI-H226 lung) [µM],TGI (NCI-H226 lung) [µM],GI50 (PC-3 prostate) [µM],TGI (PC-3 prostate) [µM],GI50 (HT29 colon) [µM],TGI (HT29 colon) [µM],GI50 (K-562 leukemia) [µM],TGI (K-562 leukemia) [µM],GI50 (U251 CNS) [µM],TGI (U251 CNS) [µM],GI50 (HCC-2998 colon) [µM],TGI (HCC-2998 colon) [µM],GI50 (A498 renal) [µM],TGI (A498 renal) [µM],GI50 (SK-MEL-5 melanoma) [µM],TGI (SK-MEL-5 melanoma) [µM],GI50 (TK-10 renal) [µM],TGI (TK-10 renal) [µM]
O=C(Nc1cccc(C(F)(F)F)c1)c1cc2ccccc2cc1O,2.61,11.8,2.22,> 100,1.93,> 25.6,3.33,> 55.5,0.487,> 100,1.23,> 100,3.35,28.8,0.919,7.4,0.987,3.5,3.97,> 41.4
Cc1cc2nc3c4ccc(Br)cc4n(CCN(C)C)c3nc2cc1C,1.71,10.7,2.46,11.1,1.51,4.22,0.664,2.89,,,1.47,4.44,1.23,2.74,1.02,2.54,1.72,3.12,1.97,7.23
COc1ccc(C(=O)c2cc3c(N)c(C(=O)Nc4cccc(OC)c4)sc3nc2C)cc1,,> 100,2.99,> 100,0.439,> 100,0.472,> 100,0.378,> 100,0.55,> 100,2.2,> 100,0.393,,0.643,> 46.1,> 100,> 100
COc1cc(/C=N/NC(=O)c2ccccc2Nc2cccc(C(F)(F)F)c2)cc(OC)c1OC,3.23,11,7.45,25.2,3.34,> 28.1,1.67,10.8,2.52,> 37.2,2.28,6.03,5.29,15.6,1.93,6.76,2.93,10.8,2.36,8.74
C=CC(C)(O)CC/C=C(\CO)C(=O)OC1C(C)OC(O[C@](C)(C=C)CC/C=C(\CO)C(=O)O[C@H]2C[C@@]3(C(=O)OC4OC(CO)C(O)C(O)C4OC4OC(C)C(OC5OC(CO)C(O)C5O)C(OC5OC(CO)C(O)C(O)C5O)C4O)C(CC2(C)C)C2=CCC4[C@@]5(C)CC[C@H](OC6OC(COC7OC(C)C(O)C(O)C7OC7OCC(O)C(O)C7O)C(O)C(O)C6NC(C)=O)C(C)(C)C5CC[C@@]4(C)[C@]2(C)C[C@H]3O)C(O)C1O (stereo not given in full),0.275,1.58,0.363,1.98,0.078,1.97,1.42,6.06,7.13,16.7,0.101,0.45,0.0688,0.195,0.142,0.585,1.99,6.22,0.097,0.237
Nc1nc(N)c2c(n1)NC(c1sc(Cl)nc1Cl)CC(c1ccc3c(c1)OCO3)=N2 (stereo not given),5.32,22.3,17.7,55.7,5.15,32.4,,,0.542,> 100,,,6.11,20,2.3,12,3.43,13.3,15,44.2
CC(C)NC(=O)OCc1c(COC(=O)NC(C)C)c(-c2cc[n+](COC(=O)C3CCCCC3)cc2)n2c1CCC2,,> 100,,> 100,,> 100,,> 100,,> 100,,> 100,,> 100,,> 100,,> 100,,> 100
CC(N1CCOCC1)C(O)(c1ccccc1)c1ccccn1 (stereo not given),,> 100,,> 100,,> 100,,> 100,,> 100,,> 100,,38.9,,> 100,,> 100,,> 100
O=S(=O)(O)SCCNCCCCCC1CCCCC1,,17.9,,30.6,,22.7,,19.1,,> 35.8,,11.7,,10.5,,40.6,,31.9,,20.7
Nc1c(C(=O)Nc2cccc3ccccc23)sc2nc3c(cc12)C(=O)CCC3,0.315,> 38.2,1.16,> 63.6,0.295,> 48.5,0.265,,0.131,> 100,0.266,,0.3,,0.0463,1.55,0.333,4.44,12.9,> 100
O=C(/C=C/c1cccc2ccccc12)Nc1ncc(Cc2ccccc2)s1,0.885,4.56,1.37,> 100,1.01,> 100,1,> 47,0.397,> 100,0.818,4.67,2.57,> 100,0.189,0.72,1.8,> 100,1.69,4.87
CN1CCN(c2ccc3nc(-c4ccc(OCCCCN5CCN(CCCCN6C(=O)c7cccc8cccc(c78)C6=O)CC5)cc4)[nH]c3c2)CC1,> 100,> 100,37.6,> 100,69.3,> 100,86.4,> 100,> 100,> 100,27.9,> 100,> 100,> 100,> 100,> 100,18.8,76.9,37.4,> 100
O=C1C=C(N2CCN(CCOCCO)CC2)C(=O)c2c(O)ccc(O)c21,,32.7,,35.5,,10.7,,15.5,,> 44.6,,15.9,,6.95,,27.8,,3.12,,22.7
O=C1/C(=C\c2ccccc2)C2OCC=C3CN4CCC56c7ccccc7N1C5C2C3CC46 (stereo not given),54.3,> 100,11.3,> 100,18,> 100,2.07,5.37,3.33,> 100,13.1,> 100,4.93,> 100,3.56,48,4.84,17.4,7.23,73.3
COC(=O)C(CSC(c1ccccc1)(c1ccccc1)c1ccccc1)NC(=O)C(CC(N)=O)NC(=O)OCc1ccccc1 (stereo not drawn) (Cbz-Asn-Cys(Trt)-OMe; configuration not given here),3.77,14.7,5.43,22,3.57,17.2,5.03,17.2,3.16,11.4,5.87,18.5,2.03,4.82,3.67,13.8,3.23,14.4,5.69,26.8
COc1cccc2c1cc1c3c(cc4c(c32)OCO4)C(=O)N1,6.89,37.6,5.8,54,3.55,24.4,5.02,73,8.89,> 100,5.78,21.1,7.82,> 100,0.0914,4,4.49,> 100,2.27,6.27
C/C(=N/O)c1ccc(Nc2cc(-n3ccnc3)c3ccccc3n2)cc1,53.2,> 100,30,89,3.69,> 100,8.34,> 100,3.27,> 100,27.3,> 100,48,> 100,27.6,94,16.3,> 100,16.4,> 100
O=C(C=C=Nc1ccccc1)C(=O)N=C=Cc1ccccc1,21.4,52.6,16.4,59.8,2.89,8.91,1.89,4.74,1.59,,5.27,17.3,4.04,9.49,16,34,5.16,17.7,2.52,6.83
CN(C(=O)CNC(=O)/C=C/c1cccc(Cl)c1)C1CCS(=O)(=O)CC1,11,> 100,1.02,> 100,> 100,> 100,0.889,> 100,,,39.5,> 100,0.663,> 100,0.421,> 100,,,2.27,> 100
Cc1cc2nc(-c3c(F)cccc3Cl)n(Cc3c(F)cccc3Cl)c2cc1C,13.9,29.1,15,38.3,3.44,12.6,10.5,> 100,39.4,> 100,14.1,29.9,11.2,23.7,15.5,32.2,11.2,23.6,15.1,46.5
COc1cc(Cn2c(-c3ccccc3)cc3c2-c2oncc2CC3)cc(OC)c1,0.521,> 100,0.93,> 100,0.677,> 100,0.315,25.9,0.201,> 100,0.427,> 100,0.387,> 100,0.153,0.75,0.372,2.02,2.44,> 100
CN=C(N)N/N=C(\C)c1ccc2c(c1)Cc1ccccc1-2,1.66,3.2,,,2.39,10.3,1.61,3.39,1.28,2.69,,,1.67,3.09,2.89,9.21,1.61,2.95,3.18,14.8
COc1ccc2c(c1)/C(=N/OC(C)=O)c1c-2cnc2ccccc12,20.8,46.6,33.5,> 100,21.3,48,43.1,> 100,24.4,73.1,19.3,39.4,39.1,> 100,29.3,82,17.6,48.5,20.4,54.8
CSCCCNC(=O)[C@H](CSC)NC(=O)c1csc(CCNC(=O)[C@@H](NSc2ccccc2[N+](=O)[O-])C(C)O)n1 (stereo not given in full),,> 100,,> 100,,> 100,,> 100,,> 100,,> 100,,> 100,,> 100,,> 100,,> 100
Cc1c(Cl)c(C)c(Cc2c(C)c(Cl)c(C)c(Cl)c2O)c(O)c1Cl,,,2.52,10.7,1.99,11.8,3.84,12.7,2.21,14.1,3.1,10.9,3.8,11.6,2.04,6.35,1.28,3.33,3.79,17.2
NNC(=O)C(O)C(O)C(=O)NN (stereo not given),,> 100,,> 100,,> 100,,> 100,,> 100,,> 100,,> 100,,> 100,,> 100,,> 100
CCCCCCCCCCCCCCCCOCC(O)CO (stereo not given),,43,,40,,37.8,,31.8,,,,36.2,,32.2,,34.5,,71.9,,28.9
Nc1ccn(C2OC(C(OC3OC(CO)C(O)C(N)C3O)C(O)C(O)C(O)C(O)CO)C(N)C(O)C2O)c(=O)n1 (stereo not given),,> 100,,,,> 100,,> 100,,,,> 100,,32.9,,> 100,,> 100,,> 100
